Measurements as given in patent US9468643B2, “PDE5 inhibitor compositions and methods for immunotherapy” (The Johns Hopkins University, priority 2005, dated 2016).
Entries after “also recorded” stand apart in the source; their conditions may differ. Like-named read-outs stand apart in the source and are kept apart here.

Legend:
[1] = tested on: CT26-WT or C26GM colon carcinoma; assay: Tumor outgrowth after s.c. challenge with CT26-WT or C26GM; format: in vivo, mice (BALB/c); conditions: for anti-tumor efficacy in immune deficient Rag-/- mice: BALB/c Rag-/- mice; for tumor outgrowth: Balb/c mice, CT26-WT or C26GM, sildenafil 20 mg/kg/day, tadalafil 2 mg/kg/day ip, treatment alone
[2] = human, in vivo, cited from earlier work
[3] = tested on: tumor-associated MSCs (CD11b+ cells); assay: In vivo sildenafil treatment of tumor-bearing mice; analysis of purified tumor-associated CD11b+ MSCs (cGMP EIA, Western blot, NO, arginase, IL4Rα flow cytometry); design: species or system mice (BALB/c); conditions: sildenafil 20 mg/kg/day in vivo
purified CD11b+ MSCs = assay: IL4Rα expression on purified CD11b+ MSCs cultured with sildenafil; format: cell-based, mice; conditions: for IL4Rα expression in cultured MSCs: sildenafil 50 μg/ml in culture; for IFN-γ mediated IL4Rα up-regulation in cultured MSCs: sildenafil 50 μg/ml, IFN-γ 25 ng/ml added on day 2
C26GM colon carcinoma [4] = assay: Adoptive cell transfer (ACT) with sildenafil in C26GM-bearing mice, tumor size; format: in vivo, mice (BALB/c)
[5] = tested on: PBLs (CD4+ and CD8+ T cells); assay: Proliferation assay of PBLs stimulated with anti-CD3/CD28 antibody-coated beads; format: cell-based, human
[6] = tested on: tumor infiltrating CD8+ / CD4+ T cells; assay: Tumor-infiltrating lymphocyte number and activation in sildenafil-treated tumor-bearing mice; format: in vivo, mice (BALB/c)
[7] = tested on: tumor-derived CD11b+ MSCs / antigen-specific T cells; assay: MSC suppressive assay (CFSE dilution of antigen-specific T cells admixed with CD11b+ MSCs); format: cell-based, mice; conditions: sildenafil 50 μg/ml
C26GM colon carcinoma [8] = assay: C26GM tumor outgrowth with sildenafil and anti-CD8 depleting antibody; format: in vivo, mice (BALB/c)
tumor = conditions: cited from earlier work; for anti-tumor efficacy as single agent: used alone; for efficacy of antitumor vaccines when used as adjuvant: with vaccines

CN1CC(=O)N2[C@H](c3ccc4c(c3)OCO4)c3[nH]c4ccccc4c3C[C@@H]2C1=O [tadalafil]
anti-tumor efficacy in immune deficient Rag-/- mice [1]: lack of anti-tumor efficacy | tumor outgrowth [1]: significantly delayed tumor outgrowth | apparent oral clearance (CL/F) ([2]; po): 2.48 L/h | time of peak plasma concentration post-dose ([2]; po): two | mean elimination half-life [2]: about 17.5 h

CCCc1nn(C)c2c(=O)[nH]c(-c3cc(S(=O)(=O)N4CCN(C)CC4)ccc3OCC)nc12 [sildenafil]
NO production by intratumoral MSCs ([3]; NO3-NO2 in supernatant): lower NO production | NOS2 expression in intratumoral MSCs ([3]; Western blot): down-regulation of NOS2 | Arg-1 expression and activity in intratumoral MSCs ([3]; Western blot and arginase assay): down-regulated Arg-1 | intracellular cGMP levels in intratumoral MSCs ([3]; competitive enzyme immune assay, vs control group): higher intracellular cGMP levels than the control group | intracellular cGMP in the non-MSC population ([3]; data not shown): No significant differences | IL4Rα expression on intratumoral MSCs ([3]; flow cytometry): significantly reduced IL4Rα expression | anti-tumor efficacy in immune deficient Rag-/- mice [1]: lack of anti-tumor efficacy | tumor outgrowth [1]: significantly delayed tumor outgrowth | IL4Rα expression in cultured MSCs (purified CD11b+ MSCs): significantly reduced | IL4Rα expression in cultured MSCs (purified CD11b+ MSCs; listed as Sildenafil): down-regulates IL4Rα in cultured MSCs | IFN-γ mediated IL4Rα up-regulation in cultured MSCs (purified CD11b+ MSCs): significantly reduced | IFN-γ mediated IL4Rα up-regulation in cultured MSCs (purified CD11b+ MSCs; listed as Sildenafil): prevents IFN-γ mediated IL4Rα up-regulation | tumor outgrowth, sildenafil without adoptive transfer (C26GM colon carcinoma [4]; sildenafil 20 mg/kg/day in drinking water): statistically significant reduction in tumor outgrowth | anti-tumor efficacy, sildenafil coupled with adoptive immunotherapy (ACT) (C26GM colon carcinoma [4]; sildenafil 20 mg/kg/day plus 20×10^6 C26GM-primed splenocytes): greatest anti-tumor efficacy | proliferation of isolated CD3+ T cells ([5]; data not shown): unable to increase T cell proliferation | CD4+ and CD8+ proliferation of PBLs from head and neck cancer and multiple myeloma patients ([5]; sildenafil 50 μg/ml, 5 days): restore CD3/CD28-stimulated proliferation of PBLs; also recorded: significantly restored CD4^+ and CD8^+ proliferation in all the examined patients | proliferation of PBLs from healthy donors ([5]; sildenafil 50 μg/ml, 5 days): no effect on PBLs from healthy donors | IL-2 production (GFP) by adoptively transferred vaccine-primed CD8+ T cells in the tumor ([6]; BALB/c-IL-2p/GFP splenocytes, sildenafil for 9 days): activated in the tumor microenvironment only with PDE5 inhibition | CD4+ T cell tumor infiltration ([6]; C26GM, day 9, flow cytometry): no increase in CD4^+ T cells | CD8+ T cell tumor infiltration ([6]; C26GM, day 9, flow cytometry): increase in intratumoral CD8^+ T cell infiltration | activation of tumor-infiltrating CD8+ T cells (CD69 and CD25) ([6]; C26GM, day 9, flow cytometry): increased the percentage of activated T cells; also recorded: significantly activated the tumor-infiltrating CD8^+ T cells | CD8+ T cell tumor infiltration ([6]; C26GM, day 9, flow cytometry, listed as Sildenafil): greater CD8^+ tumor infiltration | intratumoral cellular infiltration (hematoxylin-eosin staining) ([6]; CT26WT, day 15, sildenafil 20 mg/kg/day, vs untreated controls): greater intratumoral cellular infiltration | tumor-infiltrating CD8+ cells specific for AH1 (tetramer positive) ([6]; sildenafil-treated group, n=3, untreated 1.19±1.180): 9.08%±0.905 | proliferation (responsiveness) of HA-specific CD4+ and CD8+ T cells in presence of tumor-derived MSCs ([7]; BALB/c, C26GM-derived CD11b+ MSCs): almost completely restored | suppression of OVA-specific CD4+ T cells by MSCs from NOS2+/+ mice ([7]; C57Bl/6 NOS2+/+, B16GM melanoma): reversed MSC suppression | responsiveness of OVA-specific CD4+ T cells with MSCs from NOS2-/- mice ([7]; C57Bl/6 NOS2-/-, B16GM melanoma): did not augment T cell responsiveness | T cell function in the groups lacking CD11b cells ([7]; no MSCs added): absence of a sildenafil-mediated enhancement in T cell function | tumor outgrowth effect of sildenafil with anti-CD8 depleting antibody (C26GM colon carcinoma [8]; anti-CD8 clone 2.43 on days 0, 2, 4, 6): completely abolished by CD8^+ depletion | tumor outgrowth (C26GM colon carcinoma [8]; sildenafil alone): statistically significant reduction in tumor outgrowth

CC(=O)Oc1ccccc1C(=O)Oc1cccc(CO[N+](=O)[O-])c1 [nitroaspirin]
anti-tumor efficacy as single agent (tumor): no anti-tumor efficacy when used alone | anti-tumor efficacy as single agent (tumor; listed as nitro-aspirin): ineffective as a single agent | efficacy of antitumor vaccines when used as adjuvant (tumor): enhanced the preventive and therapeutic efficacy of antitumor vaccines | efficacy of antitumor vaccines when used as adjuvant (tumor; listed as nitro-aspirin): augmented the anti-tumor efficacy of vaccines on established tumors
